Source: the supplement of paper PMC10307832

Assays:
Experiment in all cases: relative viability (nuclei count vs DMSO), 5 days (fraction); higher = more cells survive
[1] = compound: C1=CC2=NC=CN=C2C=C1/C=C/3\C(=O)NC(=O)S3 + Cc1cc(Nc2cc(N3CCN(C)CC3)nc(Sc3ccc(NC(=O)C4CC4)cc3)n2)n[nH]1 [Tozasertib] (partner 0.1 µM)
Outline: (§1)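 Values are medians from duplicate plates. Each reflects relative viability, defined as the nuclei count of treated wells over that of vehicle wells. Lung cancer cell lines in 1536-well plates were pin-tool dosed one day after seeding with one drug alone or with a fixed anchor-drug dose plus five library-drug doses (not always all listed) in √10 steps, then fixed, stained and imaged at 4× after 5 days.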

BGJ398 + Crizotinib = compound: CCN1CCN(c2ccc(Nc3cc(N(C)C(=O)Nc4c(Cl)c(OC)cc(OC)c4Cl)ncn3)cc2)CC1 [BGJ398] + C[C@@H](Oc1cc(-c2cnn(C3CCNCC3)c2)cnc1N)c1c(Cl)ccc(F)c1Cl [Crizotinib] (partner 1 µM)
Outline: as §1

BGJ398 + Navitoclax = compound: CCN1CCN(c2ccc(Nc3cc(N(C)C(=O)Nc4c(Cl)c(OC)cc(OC)c4Cl)ncn3)cc2)CC1 [BGJ398] + CC1(C)CCC(c2ccc(Cl)cc2)=C(CN2CCN(c3ccc(C(=O)NS(=O)(=O)c4ccc(N[C@H](CCN5CCOCC5)CSc5ccccc5)c(S(=O)(=O)C(F)(F)F)c4)cc3)CC2)C1 [Navitoclax] (partner 0.5 µM)
Outline: as §1

BGJ398 + Pemetrexed = compound: CCN1CCN(c2ccc(Nc3cc(N(C)C(=O)Nc4c(Cl)c(OC)cc(OC)c4Cl)ncn3)cc2)CC1 [BGJ398] + Nc1nc2[nH]cc(CCc3ccc(C(=O)N[C@@H](CCC(=O)O)C(=O)O)cc3)c2c(=O)[nH]1 [Pemetrexed] (partner 0.2 µM)
Outline: as §1

Cell Line: NCI-H1437
- relative viability ([1]; first compound 0.02 µM): 0.404
- relative viability ([1]; first compound 0.06325 µM): 0.388
- relative viability ([1]; first compound 0.2 µM): 0.388
- relative viability ([1]; first compound 0.6325 µM): 0.418
- relative viability ([1]; first compound 2 µM): 0.323
- relative viability (BGJ398 + Crizotinib; first compound 0.01 µM): 0.91
- relative viability (BGJ398 + Crizotinib; first compound 0.03162 µM): 0.924
- relative viability (BGJ398 + Crizotinib; first compound 0.1 µM): 0.941
- relative viability (BGJ398 + Crizotinib; first compound 0.3162 µM): 1.02
- relative viability (BGJ398 + Crizotinib; first compound 1 µM): 0.877
- relative viability (BGJ398 + Navitoclax; first compound 0.01 µM): 1.1
- relative viability (BGJ398 + Navitoclax; first compound 0.03162 µM): 1.12
- relative viability (BGJ398 + Navitoclax; first compound 0.1 µM): 1.07
- relative viability (BGJ398 + Navitoclax; first compound 0.3162 µM): 1.08
- relative viability (BGJ398 + Navitoclax; first compound 1 µM): 1.06
- relative viability (BGJ398 + Pemetrexed; first compound 0.01 µM): 0.322
- relative viability (BGJ398 + Pemetrexed; first compound 0.03162 µM): 0.309
- relative viability (BGJ398 + Pemetrexed; first compound 0.1 µM): 0.296
- relative viability (BGJ398 + Pemetrexed; first compound 0.3162 µM): 0.321
- relative viability (BGJ398 + Pemetrexed; first compound 1 µM): 0.298

Cell Line: COR-L23
- relative viability ([1]; first compound 0.02 µM): 0.168
- relative viability ([1]; first compound 0.06325 µM): 0.218
- relative viability ([1]; first compound 0.2 µM): 0.19
- relative viability ([1]; first compound 0.6325 µM): 0.211
- relative viability ([1]; first compound 2 µM): 0.188
- relative viability (BGJ398 + Crizotinib; first compound 0.01 µM): 0.588
- relative viability (BGJ398 + Crizotinib; first compound 0.03162 µM): 0.826
- relative viability (BGJ398 + Crizotinib; first compound 0.1 µM): 0.598
- relative viability (BGJ398 + Crizotinib; first compound 0.3162 µM): 0.762
- relative viability (BGJ398 + Crizotinib; first compound 1 µM): 0.653
- relative viability (BGJ398 + Navitoclax; first compound 0.01 µM): 1.05
- relative viability (BGJ398 + Navitoclax; first compound 0.03162 µM): 0.978
- relative viability (BGJ398 + Navitoclax; first compound 0.1 µM): 0.986
- relative viability (BGJ398 + Navitoclax; first compound 0.3162 µM): 0.966
- relative viability (BGJ398 + Navitoclax; first compound 1 µM): 1.08
- relative viability (BGJ398 + Pemetrexed; first compound 0.01 µM): 0.189
- relative viability (BGJ398 + Pemetrexed; first compound 0.03162 µM): 0.191
- relative viability (BGJ398 + Pemetrexed; first compound 0.1 µM): 0.192
- relative viability (BGJ398 + Pemetrexed; first compound 0.3162 µM): 0.208
- relative viability (BGJ398 + Pemetrexed; first compound 1 µM): 0.193

Cell Line: ABC-1
- relative viability ([1]; first compound 0.02 µM): 0.175
- relative viability ([1]; first compound 0.06325 µM): 0.217
- relative viability ([1]; first compound 0.2 µM): 0.193
- relative viability ([1]; first compound 0.6325 µM): 0.165
- relative viability ([1]; first compound 2 µM): 0.179
- relative viability (BGJ398 + Crizotinib; first compound 0.01 µM): 1.05
- relative viability (BGJ398 + Crizotinib; first compound 0.03162 µM): 1.36
- relative viability (BGJ398 + Crizotinib; first compound 0.1 µM): 1.19
- relative viability (BGJ398 + Crizotinib; first compound 0.3162 µM): 0.925
- relative viability (BGJ398 + Crizotinib; first compound 1 µM): 1.42

Cell Line: SW 900
- relative viability ([1]; first compound 0.02 µM): 0.453
- relative viability ([1]; first compound 0.06325 µM): 0.607
- relative viability ([1]; first compound 0.2 µM): 0.702
- relative viability ([1]; first compound 0.6325 µM): 0.545
- relative viability ([1]; first compound 2 µM): 0.566
- relative viability (BGJ398 + Pemetrexed; first compound 0.01 µM): 0.471
- relative viability (BGJ398 + Pemetrexed; first compound 0.03162 µM): 0.43
- relative viability (BGJ398 + Pemetrexed; first compound 0.1 µM): 0.469
- relative viability (BGJ398 + Pemetrexed; first compound 0.3162 µM): 0.348
- relative viability (BGJ398 + Pemetrexed; first compound 1 µM): 0.256

Cell Line: NCI-H838
- relative viability ([1]; first compound 0.02 µM): 0.299
- relative viability ([1]; first compound 0.06325 µM): 0.271
- relative viability ([1]; first compound 0.2 µM): 0.221
- relative viability ([1]; first compound 0.6325 µM): 0.238
- relative viability ([1]; first compound 2 µM): 0.242
- relative viability (BGJ398 + Crizotinib; first compound 0.01 µM): 0.804
- relative viability (BGJ398 + Crizotinib; first compound 0.03162 µM): 0.837
- relative viability (BGJ398 + Crizotinib; first compound 0.1 µM): 0.781
- relative viability (BGJ398 + Crizotinib; first compound 0.3162 µM): 0.782
- relative viability (BGJ398 + Crizotinib; first compound 1 µM): 0.652
- relative viability (BGJ398 + Navitoclax; first compound 0.01 µM): 1.08
- relative viability (BGJ398 + Navitoclax; first compound 0.03162 µM): 1.11
- relative viability (BGJ398 + Navitoclax; first compound 0.1 µM): 1.03
- relative viability (BGJ398 + Navitoclax; first compound 0.3162 µM): 0.907
- relative viability (BGJ398 + Navitoclax; first compound 1 µM): 0.917
- relative viability (BGJ398 + Pemetrexed; first compound 0.01 µM): 0.227
- relative viability (BGJ398 + Pemetrexed; first compound 0.03162 µM): 0.243
- relative viability (BGJ398 + Pemetrexed; first compound 0.1 µM): 0.217
- relative viability (BGJ398 + Pemetrexed; first compound 0.3162 µM): 0.237
- relative viability (BGJ398 + Pemetrexed; first compound 1 µM): 0.23

Cell Line: NCI-H1648
- relative viability ([1]; first compound 0.02 µM): 0.408
- relative viability ([1]; first compound 0.2 µM): 0.629
- relative viability ([1]; first compound 0.6325 µM): 0.404
- relative viability ([1]; first compound 2 µM): 0.416
- relative viability (BGJ398 + Pemetrexed; first compound 0.01 µM): 0.85
- relative viability (BGJ398 + Pemetrexed; first compound 0.1 µM): 0.821
- relative viability (BGJ398 + Pemetrexed; first compound 0.3162 µM): 0.896
- relative viability (BGJ398 + Pemetrexed; first compound 1 µM): 0.651

Cell Line: A549
- relative viability (BGJ398 + Crizotinib; first compound 0.01 µM): 0.73
- relative viability (BGJ398 + Crizotinib; first compound 0.03162 µM): 0.811
- relative viability (BGJ398 + Crizotinib; first compound 0.1 µM): 0.758
- relative viability (BGJ398 + Crizotinib; first compound 0.3162 µM): 0.843
- relative viability (BGJ398 + Crizotinib; first compound 1 µM): 0.783
- relative viability (BGJ398 + Navitoclax; first compound 0.01 µM): 1.14
- relative viability (BGJ398 + Navitoclax; first compound 0.03162 µM): 1.18
- relative viability (BGJ398 + Navitoclax; first compound 0.1 µM): 1.23
- relative viability (BGJ398 + Navitoclax; first compound 0.3162 µM): 1.21
- relative viability (BGJ398 + Navitoclax; first compound 1 µM): 1.13

Cell Line: A-427
- relative viability ([1]; first compound 0.02 µM): 0.209
- relative viability ([1]; first compound 0.06325 µM): 0.241
- relative viability ([1]; first compound 0.2 µM): 0.198
- relative viability ([1]; first compound 0.6325 µM): 0.198
- relative viability ([1]; first compound 2 µM): 0.228
- relative viability (BGJ398 + Crizotinib; first compound 0.01 µM): 0.905
- relative viability (BGJ398 + Crizotinib; first compound 0.03162 µM): 0.72
- relative viability (BGJ398 + Crizotinib; first compound 0.1 µM): 0.698
- relative viability (BGJ398 + Crizotinib; first compound 0.3162 µM): 0.598
- relative viability (BGJ398 + Crizotinib; first compound 1 µM): 0.517
- relative viability (BGJ398 + Navitoclax; first compound 0.01 µM): 0.978
- relative viability (BGJ398 + Navitoclax; first compound 0.03162 µM): 0.92
- relative viability (BGJ398 + Navitoclax; first compound 0.1 µM): 0.914
- relative viability (BGJ398 + Navitoclax; first compound 0.3162 µM): 0.67
- relative viability (BGJ398 + Navitoclax; first compound 1 µM): 0.624
- relative viability (BGJ398 + Pemetrexed; first compound 0.01 µM): 1.03
- relative viability (BGJ398 + Pemetrexed; first compound 0.03162 µM): 1.08
- relative viability (BGJ398 + Pemetrexed; first compound 0.1 µM): 0.958
- relative viability (BGJ398 + Pemetrexed; first compound 0.3162 µM): 0.924
- relative viability (BGJ398 + Pemetrexed; first compound 1 µM): 0.918

Cell Line: NCI-H1792
- relative viability (BGJ398 + Crizotinib; first compound 0.01 µM): 0.939
- relative viability (BGJ398 + Crizotinib; first compound 0.03162 µM): 0.999
- relative viability (BGJ398 + Crizotinib; first compound 0.1 µM): 1.08
- relative viability (BGJ398 + Crizotinib; first compound 0.3162 µM): 0.99
- relative viability (BGJ398 + Crizotinib; first compound 1 µM): 0.93
- relative viability (BGJ398 + Navitoclax; first compound 0.01 µM): 0.659
- relative viability (BGJ398 + Navitoclax; first compound 0.03162 µM): 0.561
- relative viability (BGJ398 + Navitoclax; first compound 0.1 µM): 0.642
- relative viability (BGJ398 + Navitoclax; first compound 0.3162 µM): 0.601
- relative viability (BGJ398 + Navitoclax; first compound 1 µM): 0.553
- relative viability (BGJ398 + Pemetrexed; first compound 0.01 µM): 0.723
- relative viability (BGJ398 + Pemetrexed; first compound 0.03162 µM): 0.791
- relative viability (BGJ398 + Pemetrexed; first compound 0.1 µM): 0.831
- relative viability (BGJ398 + Pemetrexed; first compound 0.3162 µM): 0.743
- relative viability (BGJ398 + Pemetrexed; first compound 1 µM): 0.749

Cell Line: LCLC-97TM1
- relative viability ([1]; first compound 0.02 µM): 0.201
- relative viability ([1]; first compound 0.06325 µM): 0.224
- relative viability ([1]; first compound 0.2 µM): 0.194
- relative viability ([1]; first compound 0.6325 µM): 0.211
- relative viability ([1]; first compound 2 µM): 0.145
- relative viability (BGJ398 + Crizotinib; first compound 0.01 µM): 0.34
- relative viability (BGJ398 + Crizotinib; first compound 0.03162 µM): 0.335
- relative viability (BGJ398 + Crizotinib; first compound 0.1 µM): 0.317
- relative viability (BGJ398 + Crizotinib; first compound 0.3162 µM): 0.463
- relative viability (BGJ398 + Crizotinib; first compound 1 µM): 0.267
- relative viability (BGJ398 + Navitoclax; first compound 0.01 µM): 0.315
- relative viability (BGJ398 + Navitoclax; first compound 0.03162 µM): 0.271
- relative viability (BGJ398 + Navitoclax; first compound 0.1 µM): 0.41
- relative viability (BGJ398 + Navitoclax; first compound 0.3162 µM): 0.683
- relative viability (BGJ398 + Navitoclax; first compound 1 µM): 0.646
- relative viability (BGJ398 + Pemetrexed; first compound 0.01 µM): 0.172
- relative viability (BGJ398 + Pemetrexed; first compound 0.03162 µM): 0.236
- relative viability (BGJ398 + Pemetrexed; first compound 0.1 µM): 0.161
- relative viability (BGJ398 + Pemetrexed; first compound 0.3162 µM): 0.174
- relative viability (BGJ398 + Pemetrexed; first compound 1 µM): 0.162
